Results reported in patent US8465983B1, “Detection and delivery systems utilizing supported lipid bilayers” (priority 2005, dated 2013).

How the values were obtained:
[1] = test system: EPC lipid bilayer on porous silica beads; test: Suspension study: disruption of EPC bilayers on fluorescein-containing porous silica beads, release of dye into supernatant; format: biochemical
Protocol: Lipid coatings on beads were disrupted using 10% TRITON X-100 detergent. Each sample in micro-centrifuge tubes contained 5 mg of lipid bilayer coated, fluorescein entrapped beads in 200 μL of Tris buffer. Samples were centrifuged and 100 μL aliquots of supernatant were mixed with either 100 μL of Tris buffer or 100 μL of 10% TRITON X-100 detergent in separate centrifuge tubes. The fluorescence intensity of each mixture was immediately (time=0) recorded. Each mixture was mixed with its respective bead sample in centrifuge tube and incubated at 25° C. in the dark. After 30 min, samples were centrifuged and fluorescent intensity of the supernatants was measured. Beads were resuspended in their respective supernatants. Fluorescence intensity was again measured at 90 and 150 min.
Experimental procedures were similar to the TRITON X-100 detergent based analysis. For experiments with α-toxin, three different toxin concentrations: 15, 45 and 250 μg/mL were used at 37° C. and 25° C. Beads coated with EPC were used. In the experiments with melittin, 220 μM melittin was used with beads coated with either 100% EPC, 10:90 (molar ratio) mixture of DMPG and EPC or an 80:20 mixture of DMPG and DMPC. All melittin experiments were conducted at 25° C.
Previous suspension studies on disruption of lipid bilayers have been performed with small unilamellar vesicles where disruption of the lipid bilayer membranes was detected by monitoring the unquenching of a highly concentrated, encapsulated dye. In the present work disruption was monitored via release of fluorescein dye from porous beads, by measuring the increase in fluorescence intensity of the supernatant at 520 nm. Beads were first suspended in Tris buffer containing the disruptor. After selected time periods, beads were sedimented by centrifuging and a portion of the supernatant was taken for the measurement. The measured portion was added back to the bead sample to permit continuous monitoring. The scattering effect that was present in vesicle based studies was minimized by measuring only the supernatant after centrifugation of the beads.

[2] = test system: DMPG lipid bilayer supported on MS-PPE; test: Superquenching flow cytometric assay for disruption of DMPG lipid bilayer supported on MS-PPE; format: biochemical
Protocol: Lipid bilayers were disrupted by adding TRITON X-100 detergent to the bead suspension to a final concentration of 0.25% (w/v).
Bead suspensions of 2.5×10^5 DMPG-coated MS-PPE in 200 μL of PBS were analyzed using a FACScan flow cytometer (Becton-Dickinson, Sunnyvale, Calif.) with excitation at 488 nm. Fluorescence signals were acquired on FL-1 channel (525 nm) using log amplification and analyzed with the CellQuest software. Kinetic analysis of disruption of supported lipid bilayer by melittin was performed by acquiring real-time data with continuous mixing of samples (10^6 MS-PPE in 800 μl of PBS) using a magnetic stirrer. The raw data were analyzed using IDL Query software developed by Bruce Edwards (Cancer Center, University of New Mexico, Albuquerque, N. Mex.).
Because an anionic lipid was used to form a lipid bilayer around MS-PPE, it was expected that MLT will disrupt the DMPG lipid bilayer by such a detergent-like action. This was tested by adding 10 μM AQS to DMPG-coated MS-PPE followed by treatment with one of the following: TRITON X-100 detergent, synthetic MLT (sMLT), or natural MLT (nMLT) and immediately reading the fluorescence by flow cytometry. […] These histograms resemble the ones reported previously for MS-PPE, without a lipid coating, in absence and in presence of AQS.
From FIG. 18, the association constant (corresponding to the reciprocal of the point of half saturation) for nMLT and sMLT with DMPG were 5×10^6 M^−1 and 1.7×10^6 M^−1, respectively. […] Lower concentrations of nMLT, in comparison to sMLT, were required to disrupt the DMPG lipid bilayer. This might be attributed to the fact that nMLT contains some phospholipase A2 (PLA2) as a contaminant. PLA2 has a high affinity for anionic phospholipids, with an association constant of 0.5×10^10 M^−1 (Kim et al., Anal. Chem. 250, 109-116 (1997)), which is about 3000 fold higher than that of MLT. Although PLA2 activity requires calcium, which is not present in the experimental system, it has been reported that even upon addition of EDTA to natural MLT, PLA2 maintains its activity, probably due to formation of a tight complex with calcium with PLA2 (Dempsey, C. E. Biochim. Biophys. Acta 1990, 1031, 143-161).
The kinetics of disruption of supported lipid bilayer by MLT were monitored by measuring real-time changes in fluorescence intensity by flow cytometry (FIG. 19). Suspensions of 10^6 DMPG-coated MS-PPE in 800 μL of PBS were treated with AQS at a final concentration of 10 μM, then with either sMLT, TRITON X-100 detergent, or no treatment. […] Treatment with sMLT in the absence of AQS led to an increase in normalized fluorescence (FIG. 19, trace A). This can be attributed to disruption of the lipid bilayer by sMLT, and is consistent with a reversal of the slight quenching of fluorescence caused by the formation of a DMPG lipid bilayer over MS-PPE. Addition of AQS alone to DMPG-coated MS-PPE (FIG. 19, trace C) led to a 20% reduction in fluorescence as reported earlier. Addition of TRITON X-100 detergent to DMPG-coated MS-PPE after the addition of AQS (first dip in trace E, FIG. 19) caused immediate decrease in fluorescence to ˜10% of its original value (second dip in trace E, FIG. 19). In contrast, addition of sMLT, after the addition of AQS, (FIG. 19, trace D) led to a gradual reduction of fluorescence intensity to ˜20% of the original value. Although MLT forms dimers at high concentrations (Dempsey, C. E. Biochim. Biophys. Acta 1990, 1031, 143-161), it is monomeric at the concentrations used in this study. On the other hand, TRITON X-100 detergent forms micelles at the concentration used in this study.

## TRITON X-100
[1]; 10% TRITON X-100, first 30 min, 25° C.
  increase in fluorescence intensity of the supernatant: more than 70 fold
[1]; TRITON X-100 added after 150 min exposure to α-toxin
  increase in fluorescence intensity (total disruption of bilayers): 50 fold
[2]; 0.25% (w/v) TRITON X-100, 10 μM AQS, Example 2
  fluorescence after disruption of the lipid bilayer, % of the original fluorescence value: ~10%
[2]; 0.25% (w/v) TRITON X-100, 10 μM AQS, Example 3
  fluorescence after disruption, % of the fluorescence of DMPG-coated MS-PPE in the absence of quencher: ~18%
[2]; 10^6 DMPG-coated MS-PPE in 800 μL PBS, after 10 μM AQS
  fluorescence intensity after addition, % of original value (real-time kinetics): ~10%
